Assay results taken from patent publication US8785425B2, “11β-hydroxyandrosta-4-ene-3-ones” (Sun Pharma Advanced Research Company Ltd., priority 2006, dated 2014).
Marks after values point to notes of the source that are not given here.

Key:
[1] = system: croton oil induced ear edema; test: Croton oil ear edema; assay type: in vivo, Mice (male, CD-1); conditions: inhibition at 1.6 μg, applied to ear, mice
Experimental: Mice (male, CD-1) were made into different groups. Test compounds were dissolved in pyridine-water-acetone (4:2:14) solution […] of compound or vehicle solution was applied to the left ear of the mice. The right ear of each mouse was applied simultaneously with 10 μl of pyridine:water:acetone (4:2:14) solution. After 2 hrs of compound or vehicle application, 10 μl of croton oil solution was applied to the left ear of all animals. After 6 hr of croton oil treatment the animals were sacrificed; ears were excised and weighed separately.

[2] = system: cotton pellet granuloma (blank cotton pellet); test: Assessment of systemic activity by i.v. route (blank cotton pellet granuloma); assay type: in vivo; conditions: dose 1600 mcg (for 3 days), male SD rats
Experimental: For assessing systemic side effect on i.v. administration, cotton pellet granuloma assay (blank cotton pellet) in male SD rats was undertaken. Sterilized cotton pellets weighing 20 mg were surgically implanted into the scapular region on both sides. Starting from next day of implantation, compounds dissolved in Pharmasove (Pharmasolve 66.67% in saline) or vehicle were administered intravenously at 1.6 mg/kg dose for 3 successive days. On fifth day of implantation, pellets along with granuloma were taken out. The thymus gland was also separated from each animal and weighed. The pellets with granuloma were dried for 20 hrs at 60° C. and weighed. Mean weights of dry granuloma and thymus and body weight gain/100 g body weights were compared with vehicle control groups.

[3] = system: Sephadex induced lung edema; test: in vivo
Experimental: (§1) Sephadex G-200 was prepared in sterile saline (10 mg/ml) and allowed to swell for at least 3 days at room temperature. Test compounds were prepared as suspensions by grinding and sonicating the solid in chilled saline. All the compounds were administered intratracheally at 24 hrs and 2 hrs prior to intratracheal administration of Sephadex (5 mg/kg) under light ether anesthesia. Vehicle control animals were administered vehicle instead of Sephadex. At 24 hr after Sephadex instillation, lung and thymus were excised from individual animals and weighed. Wet weight of lung and thymus was corrected for 100 g of initial body weight. The percentage increase in lung weight caused by Sephadex and its inhibitions by the compounds, were calculated. The percentage inhibitions of thymus compared to vehicle control group were also calculated.

[4] = system: liver glycogen deposition; assay type: in vivo, Male Sprague Dawley rats; conditions: 3 mg/kg intratracheally, 2 doses 24 hrs apart, adrenalectomized rats
Experimental: Male Sprague Dawley rats, weighing 190-220 g were bilaterally adrenalectomized and maintained on 0.9% saline solution throughout the experiment. On day 5th and 6th of adrenalectomy, animals were made into different groups, test compounds prepared in cold saline (sonicated for 30 min) were instilled intratracheally 2 doses@3 mg/kg, 24 hrs apart. At 15 hrs after the last treatment, animals were sacrificed and livers were excised and weighed. The glycogen content of the livers was determined by anthrone method. Briefly, a weighed quantity of liver tissue was homogenized with 5% trichloroacetic acid, supernatant mixed with ethanol and kept overnight for precipitation. The glycogen thus extracted was estimated as glucose generated after acid hydrolysis by addition of anthrone reagent at 620 nm. Glycogen content was expressed as mg/100 g liver.

[5] = system: cotton pellet induced granuloma; test: Cotton pellet granuloma (compound impregnated in pellet); assay type: in vivo; conditions: dose 1000 mcg per pellet, SD rats
Experimental: SD rats were used for assessing anti-inflammatory activity of test compound using cotton pellet granuloma method. Sterilized cotton pellets weighing 20 mg were prepared. Test compounds were dissolved in acetone so as to get the required quantity for each cotton pellet in 500 μl. Different pellets were impregnated with 500 μl of acetone to contain required quantity of test compounds and allowed to dry. Vehicle control pellets were impregnated with 500 μl acetone. Rats were made into different groups. Two cotton pellets were surgically implanted into the scapular region of each rat. On sixth day of such implantation, pellets along with granuloma were taken out. Thymus gland was also separated from each animal and weighed. The pellets with granuloma were dried for 20 hrs at 60° C. and weighed. Mean weights of dry granuloma and thymus, body weight gain/100 g body weights were calculated.

glucocorticoid receptors = biological target: T1, glucocorticoid receptors (Homo sapiens, UniProt P04150); test: Glucocorticoid receptor binding assay ([3H]dexamethasone radioligand); conditions: HeLa cells transfected with glucocorticoid receptors; for inhibition at 0.1 µM: % inhibition at 100 nM
T1 construct: host or cells: Human HeLa cells
T1 sequence (P04150 1-777): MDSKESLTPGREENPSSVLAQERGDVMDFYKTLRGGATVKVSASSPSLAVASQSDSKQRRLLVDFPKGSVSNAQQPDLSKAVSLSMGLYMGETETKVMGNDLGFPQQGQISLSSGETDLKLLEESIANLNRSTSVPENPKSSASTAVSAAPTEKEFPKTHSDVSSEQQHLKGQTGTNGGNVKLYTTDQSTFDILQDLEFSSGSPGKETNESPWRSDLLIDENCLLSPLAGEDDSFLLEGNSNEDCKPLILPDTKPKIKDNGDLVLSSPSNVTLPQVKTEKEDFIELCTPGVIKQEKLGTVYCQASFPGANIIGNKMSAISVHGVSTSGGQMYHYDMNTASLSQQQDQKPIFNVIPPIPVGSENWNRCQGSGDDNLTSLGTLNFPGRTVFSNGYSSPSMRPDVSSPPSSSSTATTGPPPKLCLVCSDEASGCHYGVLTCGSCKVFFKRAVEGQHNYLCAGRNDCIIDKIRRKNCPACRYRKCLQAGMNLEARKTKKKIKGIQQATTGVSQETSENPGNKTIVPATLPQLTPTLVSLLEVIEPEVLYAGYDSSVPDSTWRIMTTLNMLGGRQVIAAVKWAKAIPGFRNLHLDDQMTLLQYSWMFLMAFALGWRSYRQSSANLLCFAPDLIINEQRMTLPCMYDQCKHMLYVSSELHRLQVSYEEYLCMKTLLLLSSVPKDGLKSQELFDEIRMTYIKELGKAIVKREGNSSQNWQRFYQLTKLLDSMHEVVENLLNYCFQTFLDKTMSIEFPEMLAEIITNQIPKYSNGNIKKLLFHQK
Experimental: The steroid receptor binding assay were performed by MDS Pharma Services at their Taipei (Taiwan) pharmacology laboratory.
The activity of test compounds on glucocorticoid receptor was assessed using radioligand binding assays. […] Free [^3H]dexamethasone was removed from the medium by centrifugation and concentration of receptor bound ligand was determined in the supernatant by liquid scintillation counting.
The % inhibition was evaluated using a single concentration of test compound and the corresponding radiolabeled ligand. Results are presented as the percent inhibition of specific binding. The values are average of duplicate determinations for each concentration.

in vivo = conditions: SD, rat, thymus, other: intratracheal
Experimental: as §1

[6] = dose 3000 mcg/kg intratracheally, SD rat

Row | Structure (SMILES) | Mean % Inhibition (croton oil ear edema) [1] | Mean Inhibition of Granuloma (%) [2] [%] | % Inhibition of thymus [4] [%] | Glycogen content [4] [mg/100 g liver] | Mean % Inhibition of Granuloma [5] [%] | Thymus wt. (% Decrease) [5] [%] | inhibition at 0.1 µM (glucocorticoid receptors) [%] | further results
1 | CCC(=O)O[C@]1(C(=O)SCF)[C@H](C)C[C@H]2[C@@H]3C[C@H](F)C4=CC(=O)C=C[C@]4(C)[C@@]3(F)[C@@H](O)C[C@@]21C [Fluticasone propionate, (S)-fluoromethyl 6α,9α-difluoro-11β-hydroxy-16α-methyl-17α-propionyloxy-3-oxoandrosta-1,4-diene-17β-carbothioate, reference compound] | 81.09^a % | 55.62 | 70.17 | 1514.65 | 75.03 | 82.36 |  | Mean Thymus wt. Decrease (%) [2]: 75.71%; ED50 Lung edema ([3]; i.t., Sephadex lung edema model in SD rat): 0.086 mg/kg; ED50 Thymus ([3]; i.t., thymus involution, Sephadex lung edema model in SD rat): 0.36 mg/kg
2 | CCCC1O[C@@H]2C[C@H]3[C@@H]4CCC5=CC(=O)C=C[C@]5(C)[C@H]4[C@@H](O)C[C@]3(C)[C@]2(C(=O)CO)O1 (stereo partly drawn) [Budesonide, (11β,16α)-16,17-[Butylidenebis(oxy)]-11,21-dihydroxypregna-1,4-diene-3,20-dione] |  |  | 65.02 | 552.77 |  |  |  | inhibition at 0.01 µM (glucocorticoid receptors; % inhibition at 10 nM): 85%; ED50 ([3]; Rattus norvegicus, inhaled or nasal, read-out: ED50 Lung edema): 0.101 mg/kg; Mean % inhibition Lung edema [3, 6]: 119.38%; Mean % inhibition Thymus [3, 6]: 67.08%; ED50 at 24 h (in vivo): 0.68 mg/kg
3 | C[C@@H]1CC2C3C[C@H](F)C4=CC(=O)C=C[C@]4(C)[C@@]3(F)[C@@H](O)C[C@]2(C)[C@@]1(OC(=O)c1ccco1)C(=O)SOCc1ccc(F)cc1 (stereo partly drawn) [IC.5, 6α,9α-Difluoro-17α-[(2-furanylcarbonyl)oxy]-11β-hydroxy-16α-methyl-3-oxoandrosta-1,4-diene-17β-carbonylsulfenic acid (4-fluorophenyl)methyl ester] |  | −22.20 |  |  |  |  | 75 | 
4 | CCC(=O)O[C@]1(C(=O)SOCF)[C@H](C)CC2C3C[C@H](F)C4=CC(=O)C=C[C@]4(C)[C@@]3(F)[C@@H](O)C[C@@]21C (stereo partly drawn) [IC.3, 6α,9α-Difluoro-11β-hydroxy-16α-methyl-3-oxo-17α-propionyloxyandrosta-1,4-diene-17β-carbonylsulfenic acid fluoromethyl ester] |  | 12.09 |  | −11.34 |  |  | 72 | 
5 | C[C@@H]1C[C@H]2[C@@H]3CCC4=CC(=O)C=C[C@]4(C)[C@@]3(F)[C@@H](O)C[C@]2(C)[C@@]1(O)C(=O)CO [Dexamethasone, 16α-methyl-9α-fluoro-1,4-pregnadiene-11β,17α,21-triol-3,20-dione, reference compound] | 50.05^a % |  |  |  | 44.73 | 68.66 |  | 
